Patent publication US8877980B2, “Phenylboronic acid” (Al-Urdonia Lemudaddat Al-Ajsam Co., priority 2012, dated 2014)
Values after ≈ are worked out from the molar mass of the structure shown. Like-named read-outs stand apart in the source and are kept apart here.

What was measured:
[1] = test system: E. coli ATCC 8739; experiment: Disk diffusion; type: cell-based
Description: (§1) The following bacterial strains were used; S. aureus ATCC 29350, E. coli ATCC 8739, and P. aeruginosa ATCC 27853. The cultivation medium for P. aeruginosa and E. coli were tryptone soy Agar (Oxoid, UK), and, 5% defibrinated sheep blood added to columbia blood agar base (Oxoid, UK). The bacterial cultures were aerobically grown at 37° C. for 24 hrs. For antimicrobial testing, the bacterial cultures were prepared by picking colonies from logarithmic phase of growth and suspended in 5 ml of Mueller Hinton broth with suitable supplements. The bacterium inoculum sizes were adjusted to 10^8 CFU/ml for all strains.
(§2) solutions of 2-(bromoacetamido)phenylboronic acid were prepared by gradually dissolving 2-(bromoacetamido)phenylboronic acid to the maximum solubility in 100% DMSO (1 mg/ml). Similarly standard stock solution of Vancomycin and Penicillin (1 mg/ml) were used as positive controls.
(§3) For the disk diffusion assay, bacterial suspensions were prepared to the standard McFarland's (0.5) and subsequently uniformly spread on a solid growth medium in a Petri dish. Sterile paper disks (6 mm in diameter; oxoid, UK) were placed on the surface of each agar plate and were impregnated with 30 μL to a final concentration of 600 ug/ml of each agent to be tested. The plates were incubated for the recommended time periods (18-24 hrs) under appropriate cultivation conditions. Antibacterial activity was determined by measuring an inhibition zone around a disk following the incubation. Disks impregnated with sterile distilled water, DMSO served as negative controls and disks with standard antibiotics Vancomycin and penicillin (Oxoid, UK) served as positive controls. Triplicates at each concentration were performed and the average of the results was taken.

[2] = test system: P. aerugionsa ATCC 27853; experiment: Disk diffusion; type: cell-based; settings: P. aeruginosa ATCC 27853
Description: as §1, §2, §3

[3] = test system: P. aerugionsa ATCC 27853; experiment: Broth microdilution MIC determination; type: cell-based, P. aeruginosa; settings: for MIC: Pseudomonas aeruginosa
Description: as §1, §2
For the broth microdilution test, 100 μL of each bacterial suspension in suitable growth medium was added to the wells of a sterile 96-well microtitre plate already containing 100 μL of two-fold serially diluted 2-(bromoacetamido)phenylboronic acid or vancomycin and penicillin in proper growth medium. The final volume in each well was 200 μL. Control wells were prepared with culture medium, bacterial suspension only compound only and DMSO in amounts corresponding to the highest quantity present. […] To indicate cell viability, the presence of a purple color was determined after adding 20 μL/well of 500 ug/ml MTT (3-(4,5-Dimethylthiazol-2-yl-2,5-diphenyltetrazolium bromide, Sigma) and incubated under appropriate cultivation conditions (37° C. for 3 hrs). To determine the formation of formazan by living cells, OD570 was measured by a Microplate Reader (Thermoscientific, Finland) after adding 200 μL/well of a solubilizing solution (a mixture of DMSO:ethanol (1:1)). Positive controls were wells with a bacterial suspension in an appropriate growth medium. Negative controls were wells with growth medium and antimicrobial compound. […]

[4] = test system: S. aureus ATCC 2592; experiment: Disk diffusion; type: cell-based
[5] = test system: MRSA clinical strain; experiment: Disk diffusion; type: cell-based, methicillin resistant S. aureus
[6] = test system: MRSA clinical strain; experiment: Broth microdilution MIC determination; type: cell-based, methicillin resistant S. aureus; settings: for MIC: Staphylococcus aureus, 24 h
[7] = test system: S. aureus ATCC 2592; experiment: Broth microdilution MIC determination; type: cell-based; settings: Staphylococcus aureus, ATCC2592, 24 h, MTT readout
[8] = Single dose acute toxicity study and LD50 determination; type: in vivo, mice; settings: mouse, in vivo; acute oral, dissolved in DMSO, BALB/c mice; curve generated
Description: (§4) Results of Acute Toxicity of 2-(bromoacetamido)phenylboronic Acid in Balb/c Mice
(§5) • a. […] This effect started 30 minutes post treatment. The activity was recovered after 3 hours post treatment (for survived animals). […] The time of deaths was observed as dose dependent. Mice treated with 150 mg/kg died within 18 hours of 2-(bromoacetamido)phenylboronic acid administration while mice treated with 200 mg/kg died within 4 hours post treatment. • e.

[9] = test system: Balb/c Mice; experiment: as above; type: in vivo
Description: as §4, §5

[10] = Maximum solubility in DMSO (stock solution); type: physicochemical; settings: 100% DMSO, organic solvent or mixture, thermodynamic from solid
Description: as §2

[11] = test system: E. coli ATCC 8739; experiment: Broth microdilution MIC determination; type: cell-based
Description: as §1, §2
For the broth microdilution test, 100 μL of each bacterial suspension in suitable growth medium was added to the wells of a sterile 96-well microtitre plate already containing 100 μL of two-fold serially diluted 2-(bromoacetamido)phenylboronic acid or vancomycin and penicillin in proper growth medium. The final volume in each well was 200 μL. Control wells were prepared with culture medium, bacterial suspension only compound only and DMSO in amounts corresponding to the highest quantity present. […]

Which results are given for `CC1(C)S[C@@H]2[C@H](NC(=O)[C@H](N)c3ccccc3)C(=O)N2[C@H]1C(=O)O` [Ampicillin, reference compound]?
Susceptibility category (S/R) beside zone of inhibition [1]: S; Susceptibility category (S/R) beside zone of inhibition [2]: R; MIC ([3]; ATCC27853, 24 h): 150 µg/mL (≈ 429 µM)

For `CN[C@H](CC(C)C)C(=O)N[C@H]1C(=O)N[C@@H](CC(N)=O)C(=O)N[C@H]2C(=O)N[C@H]3C(=O)N[C@H](C(=O)N[C@H](C(=O)O)c4cc(O)cc(O)c4-c4cc3ccc4O)[C@H](O)c3ccc(c(Cl)c3)Oc3cc2cc(c3O[C@@H]2O[C@H](CO)[C@@H](O)[C@H](O)[C@H]2O[C@H]2C[C@](C)(N)[C@H](O)[C@H](C)O2)Oc2ccc(cc2Cl)[C@H]1O` [Vancomycin, reference compound], which “Susceptibility category (S/R) beside zone of inhibition” value [4] is on record?
The value was “S”.

And the “Susceptibility category (S/R) beside zone of inhibition” value [5]?
The value was “S”.

What about the MIC ([6]; MRSA) of the same compound?
The MIC was 0.4 µg/mL (≈ 0.276 µM).

Which zone of inhibition at 600 µg/mL ([4]; Staphylococcus aureus, ATCC2592, agent concentration as in row label (vancomycin 100 μg/ml, compound 600 μg/ml)) does the source give for `O=C(CBr)Nc1ccccc1B(O)O` [2-(bromoacetamido)phenylboronic acid] here?
Its zone of inhibition at 600 µg/mL is 24 mm.

And the MIC [7]?
Its MIC is 1.56 µg/mL (≈ 6.05 µM).

What about the zone of inhibition at 600 µg/mL ([1]; Escherichia coli, ATCC8739, agent concentration as in row label (ampicillin 20 mg/ml, compound 600 μg/ml)) of the same compound?
The zone of inhibition at 600 µg/mL was 16 mm.

And the LD50 at 14 days [8]?
Its LD50 at 14 days is about 130 mg/kg.

What about the “% Death/group” value ([9]; 10 mg/kg single oral dose in DMSO) of the same compound?
The value was 0%.

What about the “% Death/group” value ([9]; 50 mg/kg single oral dose in DMSO) of the same compound?
Its value is 0%.

And the “% Death/group” value ([9]; 100 mg/kg single oral dose in DMSO)?
Its value is 0%.

What about the “Time of death after administration” value ([9]; 150 mg/kg) of the same compound?
Its value is at most 18 h.

What about the “% Death/group” value ([9]; 150 mg/kg single oral dose in DMSO) of the same compound?
The value was 70%.

What about the “Time of death after administration” value ([9]; 200 mg/kg) of the same compound?
Its value is at most 4 h.

And the “% Death/group” value ([9]; 200 mg/kg single oral dose in DMSO)?
The value was 70%.

What about the “Behaviour and clinical signs post administration” value ([9]; 10, 50 and 100 mg/kg) of the same compound?
The value was “behaved normally”.

What about the “Behaviour and clinical signs post administration” value ([9]; 150 and 200 mg/kg) of the same compound?
The value was “Reduced activity”.

What about the “Start of reduced activity post treatment” value ([9]; 150 and 200 mg/kg) of the same compound?
The value was 30 min.

And the “Recovery of activity post treatment” value ([9]; 150 and 200 mg/kg, survived animals)?
The value was 3 h.

What about the “Doses showing systemic toxicity and causing death” value ([9]; acute oral, dissolved in DMSO, BALB/c mice) of the same compound?
Its value is “above 100 mg/kg”.

And the “Change in body weights” value ([9]; all groups)?
The value was “No significant change”.

And the Gross autopsy ([9]; dead mice and all survivors at day 14)?
Its Gross autopsy is “did not reveal any significant findings”.

And the “% Death/gender” value ([9]; females, 10 mg/kg single oral dose in DMSO)?
The value was 0%.

And the “% Death/gender” value ([9]; females, 50 mg/kg single oral dose in DMSO)?
Its value is 0%.

And the “% Death/gender” value ([9]; females, 100 mg/kg single oral dose in DMSO)?
The value was 0%.

What about the “% Death/gender” value ([9]; females, 150 mg/kg single oral dose in DMSO) of the same compound?
Its value is 100%.

What about the “% Death/gender” value ([9]; males, 10 mg/kg single oral dose in DMSO) of the same compound?
Its value is 0%.

What about the “% Death/gender” value ([9]; males, 50 mg/kg single oral dose in DMSO) of the same compound?
The value was 0%.

What about the “% Death/gender” value ([9]; males, 100 mg/kg single oral dose in DMSO) of the same compound?
Its value is 0%.

And the “% Death/gender” value ([9]; males, 150 mg/kg single oral dose in DMSO)?
The value was 40%.

What about the “% Death/gender” value ([9]; males, 200 mg/kg single oral dose in DMSO) of the same compound?
Its value is 80%.

What about the solubility [10] of the same compound?
The solubility was 1000 µg/mL (≈ 3880 µM).

What about the “Growth inhibition (statement in words)” value ([11]; E. coli, general statement of the description, method not named) of the same compound?
The value was “inhibits the growth”.

What about the MIC ([11]; Escherichia coli, ATCC8739, E. coli ATCC 8739, 24 h, MTT readout) of the same compound?
The MIC was 75 µg/mL (≈ 291 µM).

What about the “Growth inhibition (statement in words)” value ([6]; MRSA, general statement of the description, method not named) of the same compound?
The value was “inhibits the growth”.

What about the MIC ([6]; MRSA clinical strain, MTT readout, read-out: MIC) of the same compound?
The MIC was 1.56 µg/mL (≈ 6.05 µM).

And the “Growth inhibition (statement in words)” value ([3]; P. aeruginosa, general statement of the description, method not named)?
The value was “inhibits the growth”.

And the MIC ([3]; ATCC27853, P. aeruginosa ATCC 27853, 24 h, MTT readout, read-out: MIC)?
The MIC was over 600 µg/mL.
